Assay results taken from patent publication US11866460B2 (priority 2015, dated 2024).
Where “and” joins values, the source holds several entries; their conditions need not be identical. Equal entries are not always repeated. Where two headings read alike, the source gives them in different places. Where a SMILES comes first, the peptide text is derived from it. Where no end group is shown, it is not given here.

Legend:
[1] = system: CHIKV 181/25; test: microbe, parasite or virus in culture; settings: Chikungunya virus, Vero
[2] = system: CHIKV 181/25
[3] = system: DENV-1 PRS41393
[4] = system: DENV-2 New Guinea C
[5] = system: DENV-3 H87
[6] = system: DENV-4 H241
[7] = system: JEV 14-14-2
[8] = system: YFV 17D
[9] = system: human erythrocyte cells
[10] = in vitro; settings: African green monkey
[11] = system: LACV H44-71017; test: organism not typed; type: cell-based, LaCrosse encephalitis virus; settings: Vero
[12] = system: Vero cells; settings: African green monkey
[13] = system: DENV-1 PRS41393; test: microbe, parasite or virus in culture; settings: Dengue virus, DENV1, Vero
[14] = system: DENV-2 New Guinea C; test: microbe, parasite or virus in culture; settings: Dengue virus, DENV2, Vero
[15] = system: DENV-3 H87; test: microbe, parasite or virus in culture; settings: Dengue virus, DENV3, Vero, 0 h
[16] = system: DENV-4 H241; test: microbe, parasite or virus in culture; settings: Dengue virus, DENV4, Vero
[17] = system: JUNV Candid #1; test: microbe, parasite or virus in culture; settings: Mammarenavirus juninense, Vero
[18] = system: RVFV MP12; test: microbe, parasite or virus in culture; settings: Rift Valley fever virus, Vero, 0 h
[19] = system: YFV 17D; test: microbe, parasite or virus in culture; settings: Yellow fever virus, Vero
[20] = system: Ebola virus (EBOV)
[21] = system: Marburg virus (MARV)
[22] = system: panel of enveloped viruses (DENV, JEV, YFV, CHIKV and others)
[23] = system: influenza A/Hong Kong/1/1968 virus (H3N2); test: microbe, parasite or virus in culture; settings: H3N2, MDCK
[24] = system: S. aureus (ATCC 25923)
[25] = read-out: EC50 Values for the Indicated Virus

Work on `O=c1cnn([C@@H]2O[C@H](CO)[C@@H](O)[C@H]2O)c(=O)[nH]1` [6-azauridine] yielded an EC50 [1] of 0.29 µM.

With `CC[C@H](C)[C@H](NC(=O)[C@H](Cc1c[nH]c2ccccc12)NC(=O)[C@H](CC(=O)O)NC(=O)[C@H](Cc1c[nH]c2ccccc12)NC(=O)[C@@H](NC(=O)[C@H](CC(=O)O)NC(=O)[C@H](CCCNC(=N)N)NC(=O)[C@H](CC(C)C)NC(=O)[C@H](Cc1c[nH]c2ccccc12)NC(=O)[C@H](CO)NC(=O)CNC(=O)[C@@H](N)CO)C(C)C)C(=O)N[C@@H](CS)C(=O)N[C@H](C(=O)N[C@H](C(=O)N[C@@H](CC(C)C)C(=O)N[C@H](C(=O)N[C@@H](CC(=O)O)C(=O)N[C@@H](Cc1ccccc1)C(=O)N[C@@H](CCCCN)C(=O)N[C@H](C(=O)N[C@@H](Cc1c[nH]c2ccccc12)C(=O)N[C@@H](CC(C)C)C(=O)N[C@@H](CCC(N)=O)C(=O)N[C@@H](CO)C(=O)N[C@@H](CCCCN)C(=O)N[C@@H](CC(C)C)C(=O)O)[C@@H](C)O)[C@@H](C)O)C(C)C)[C@@H](C)O` [AH, reference compound] the “Therapeutic Index (CC50/EC50)” value [2] was 21.21, the “Therapeutic Index (CC50/EC50)” value ([3]; -1 PRS41393) was 49.98 and the “Therapeutic Index (CC50/EC50)” value ([4]; -2 New Guinea C) was 708.11. For the same compound, the “Therapeutic Index (CC50/EC50)” value ([5]; -3 H87) was 17.65, the “Therapeutic Index (CC50/EC50)” value ([6]; -4 H241) was 36.84 and the “Therapeutic Index (CC50/EC50)” value [7] was 236.04. The “Therapeutic Index (CC50/EC50)” value [8] was 5.87, the MHC [9] was 50 µM and the EC50 [10] was 127 µM. It also gave a CC50 [10] of 192 µM.

With `Nc1ccn(C[C@@H](CO)OCP(=O)(O)O)c(=O)n1` [Cidofovir] the CC50 [10] was > 375 µM.

For `NC(=O)c1ncn([C@@H]2O[C@H](CO)[C@@H](O)[C@H]2O)n1` [Ribavirin], the EC50 [11] was 161 µM, the EC50 ([11]; 0 h) was 143 µM and the EC50 [4] was 203 µM and 185 µM. The EC50 [6] was 209 µM and 284 µM, the EC50 [8] was 212 µM and 170 µM and the CC50 [12] was 577 µM. For the same compound, the CC50 [10] was > 750 µM, the EC50 [13] was 144 µM and the EC50 ([13]; 0 h) was 206 µM. For the same compound, the EC50 [14] was 267 µM, the EC50 ([14]; 0 h) was 360 µM and the EC50 [15] was 176 µM. For the same compound, the EC50 [16] was 253 µM, the EC50 ([16]; 0 h) was 395 µM and the EC50 [17] was 73.2 µM. For the same compound, the EC50 ([17]; 0 h) was 63.7 µM, the EC50 [18] was 140 µM and the EC50 [19] was 203 µM. For the same compound, the EC50 ([19]; 0 h) was 258 µM.

With `CC(C)C[C@H](NC(=O)[C@H](CCCCN)NC(=O)[C@H](CO)NC(=O)[C@H](CCC(N)=O)NC(=O)[C@H](CC(C)C)NC(=O)[C@H](Cc1c[nH]c2ccccc12)NC(=O)[C@@H](NC(=O)[C@H](Cc1c[nH]c2ccccc12)NC(=O)[C@@H](NC(=O)[C@H](CC(=O)O)NC(=O)[C@H](CCCNC(=N)N)NC(=O)[C@H](CC(C)C)NC(=O)[C@H](Cc1c[nH]c2ccccc12)NC(=O)[C@H](CO)NC(=O)CNC(=O)[C@H](CO)NC(=O)CCOCCOCCOCCOCCOCCOCCOCCOCCOCCOCCOCCOCCNC(=O)CCOCCOCCOCCOCCOCCOCCOCCOCCOCCOCCOCCOCCN)C(C)C)[C@@H](C)O)C(N)=O` [TSGX1X] (HELM PEPTIDE1{[NCCOCCOCCOCCOCCOCCOCCOCCOCCOCCOCCOCCOCCC(=O)[*:2]].[O=C(CCOCCOCCOCCOCCOCCOCCOCCOCCOCCOCCOCCOCCN[*:1])[*:2]].S.G.S.W.L.R.D.V.W.T.W.L.Q.S.K.L.[am]}$$$$V2.0) the EC50 ([2]; 0 h) was 27.2 µM, the EC50 [3] was 4.98 µM and the EC50 [4] was 3.86 µM. It also gave an EC50 [5] of 2.28 µM, an EC50 [6] of 3.54 µM and an EC50 ([7]; 0 h) of 1.27 µM. The EC50 [8] was 22.4 µM, the EC50 [20] was 13.5 µM and the EC50 [20, 25] was 13.5 µM. The EC50 [21] was 14.3 µM, the EC50 [21, 25] was 14.3 µM and the “antiviral activities of pegylated peptides” value [22] was “reduced”. The “antiviral activity of pegylated peptides” value [22] was “preserve strong antiviral activity” and the “efficacy against infection” value [22] was “effective”.

`CC(C)C[C@H](NC(=O)[C@H](CCCCN)NC(=O)[C@H](CO)NC(=O)[C@H](CCC(N)=O)NC(=O)[C@H](CC(C)C)NC(=O)[C@H](Cc1c[nH]c2ccccc12)NC(=O)[C@@H](NC(=O)[C@H](Cc1c[nH]c2ccccc12)NC(=O)[C@@H](NC(=O)[C@H](CC(=O)O)NC(=O)[C@H](CCCNC(=N)N)NC(=O)[C@H](CC(C)C)NC(=O)[C@H](Cc1c[nH]c2ccccc12)NC(=O)[C@H](CO)NC(=O)[C@H](CO)NC(=O)CNC(=O)CCOCCOCCOCCOCCOCCOCCOCCOCCOCCOCCOCCOCCNC(=O)CCOCCOCCOCCOCCOCCOCCOCCOCCOCCOCCOCCOCCN)C(C)C)[C@@H](C)O)C(N)=O` [TSGX2X] (HELM PEPTIDE1{[NCCOCCOCCOCCOCCOCCOCCOCCOCCOCCOCCOCCOCCC(=O)[*:2]].[O=C(CCOCCOCCOCCOCCOCCOCCOCCOCCOCCOCCOCCOCCN[*:1])[*:2]].G.S.S.W.L.R.D.V.W.T.W.L.Q.S.K.L.[am]}$$$$V2.0) showed an EC50 [20] of 29.9 µM, an EC50 [20, 25] of 29.9 µM and an EC50 [21] of 44.3 µM. For the same compound, the EC50 [21, 25] was 44.3 µM, the “antiviral activities of pegylated peptides” value [22] was “reduced” and the “antiviral activity of pegylated peptides” value [22] was “preserve strong antiviral activity”. For the same compound, the “efficacy against infection” value [22] was “effective”.

With `CC(=O)N[C@H]1[C@H]([C@H](O)[C@H](O)CO)OC(C(=O)O)=C[C@@H]1N=C(N)N` [Zanamivir] the EC50 [23] was 4.52 µM.

In the case of AGSWLRDILTLLQSAL [TSG009], the MHC [9] is reported as 1.5 µM, the “MIC in PB” value ([24]; 10 mM potassium phosphate buffer, pH 7.2) is reported as 1.5 µM and the “MIC in PBS” value ([24]; phosphate-buffered saline) is reported as 1.5 µM.
